Results taken from patent US9763956B2, “Diagnostic and treatment methods in subjects having or at risk of developing resistance to cancer therapy” (The Broad Institute, Inc., priority 2012, dated 2017).
“Also recorded” adds a separate entry of the source.

How the values were obtained:
[1] = test system: Notch inhibitor resistant (persister) T-ALL cell lines; assay: Cell viability / proliferation (Celltiterglo luminescence); assay type: cell-based, human; conditions: compared to naïve cells, viability read on day 6
Description: (§1) Notch inhibitor sensitive and resistant T-ALL cell lines were plated in 96 well plates and treated with vehicle, 1 uM GSI and/or increasing concentrations of the bet inhibitor JQ1. Cell viability was determined by measuring luminescence after Celltiterglo® (Promega) addition on day 6. Apoptosis was measured using Caspaseglo® (Promega) on day 4.

MYC in persister cells = assay: MYC expression, Western blot (FIG. 17A); assay type: cell-based, human
Description: (§2) FIG. 17A is two photographs of western blots show MYC expression in naïve and persister cells after 3 day treatment with 2 μM AKT inhibitor, MK-2206, or 10 nM mTOR inhibitor, Rapamycin. FIG. 17B depicts graphs showing BRD4 binding at the MYC and BCL2 promoters.

[2] = test system: Notch inhibitor resistant T-ALL cell lines; assay: Apoptosis (Caspaseglo); assay type: cell-based, human; conditions: resistant leukemia cells compared to naïve; day 4
Description: as §1

[3] = test system: Bcl-2 in naïve leukemia cells; assay: Bcl-2 protein level, Western blot (FIG. 9B); assay type: cell-based, human; conditions: naïve population
[4] = test system: Bcl-2 in GSI resistant leukemia cells; assay: Bcl-2 protein level, Western blot (FIG. 9B); assay type: cell-based, human; conditions: GSI resistant (persister) cells
[5] = Gastrointestinal toxicity, Periodic acid-Schiff (PAS) stain in Balb/c mice; assay type: in vivo, mouse; conditions: JQ1 given in addition to DBZ
Description: Balb/c mice were treated with DBZ+JQ1, DBZ, or vehicle alone. Hyperproliferation of globlet cells was measured by Periodic acid-Schiff (PAS) stain.

[6] = test system: Notch inhibitor sensitive (naïve) T-ALL cell lines; assay: Cell viability / proliferation (Celltiterglo luminescence); assay type: cell-based, human; conditions: JQ1 concentrations that arrest persisters
Description: as §1

MYC in naïve T-ALL cells = assay: MYC expression, Western blot (FIG. 12B, 17A); assay type: cell-based, human
Description: as §2

[7] = test system: Notch inhibitor sensitive T-ALL cell lines; assay: Long-term culture of Notch inhibitor sensitive T-ALL cell lines with GSI (resistance modeling); assay type: cell-based, human
Description: Notch inhibitor sensitive T-ALL cell lines were cultured in the presence of 1 μM GSI in vitro. Cells were plated at 0.25×10^6/ml in 20 mL and split every 3-4 days. Cell viability, cell size and cell cycle were measured every 3-4 days. […] GSI-treated cells stopped proliferating between day 14 to 30 of culture, but eventually started proliferating again despite the presence of GSI with subsequent growth rates being equal or similar to untreated cells.

Cc1sc2c(c1C)C(c1ccc(Cl)cc1)=N[C@@H](CC(=O)OC(C)(C)C)c1nnc(C)n1-2 (single isomer, unassigned) [JQ1 enantiomer]
proliferation / survival of resistant (persister) leukemia cells [1]: no effect

CN(C)CC[C@H](CSc1ccccc1)Nc1ccc(S(=O)(=O)NC(=O)c2ccc(N3CCN(Cc4ccccc4-c4ccc(Cl)cc4)CC3)cc2)cc1[N+](=O)[O-] [ABT-737]
proliferation / survival of resistant (persister) leukemia cells [1]: effectively killed persister cells

Cc1sc2c(c1C)C(c1ccc(Cl)cc1)=N[C@@H](CC(=O)OC(C)(C)C)c1nnc(C)n1-2 [JQ1]
MYC expression (MYC in persister cells): significantly reduced MYC expression
apoptosis [2]: increase in apoptosis
Bcl-2 expression [3]: little effect
Bcl-2 protein level / expression [4]: inhibited; also recorded: decreased level of Bcl-2 protein; also recorded: significantly reduced Bcl-2 expression
intestinal villi architecture (PAS stain) [5]: largely ameliorated villi architecture
proliferation / survival of resistant (persister) leukemia cells [1]: decrease in proliferation; also recorded: proliferation arrest
proliferation of naïve T-ALL cells [6]: well tolerated
MYC expression (MYC in naïve T-ALL cells): did not alter MYC

C[C@H](NC(=O)Cc1cc(F)cc(F)c1)C(=O)N[C@H]1N=C(c2ccccc2)c2ccccc2N(C)C1=O [compound E]
GSI concentration tolerated by persister cells relative to the IC50 [7]: more than 50 fold
